# What was measured:
# GN4 cells = experiment: Phototoxicity to GN4 tumor cells, MTT assay; assay type: cell-based, canine; conditions: dark, zero time point
# Procedure: (§1) Photolysis with Tumor Cells.
# Media was decanted from the flask. […] Trypsin-EDTA was then decanted and the flask was incubated at 37° C. for 8 minutes. […] Released cells were suspended in 5 mL of media and shaken well. […] The remaining cells were discarded.
# Cells were plated, incubated with the drug, and photolysis was conducted as for the KB cell lines.
# cell membrane = experiment: Cell uptake / passage through the cell membrane
# Procedure: OCTBP uptake by KB cells. 11 mg of OCTBP was dissolved in 40 mL of PBS buffer. The solution was vortex stirred for 5 minutes to completely dissolve the solid. The solution was sterile filtered through a 0.2μ nylon syringe filter. The concentration of the solution was determined by measuring the UV absorption at 353 nm (ε353nm=1565 M^−1cm^−1).
# Once the cells were 75% confluent media was decanted from the flasks and 8 mL of drug solutions were added to three flasks and 8 mL of PBS buffer solution was added to the control flask. The flasks were incubated at 37° C. for 15, 30 and 45 minutes. Control flask was incubated for 45 minutes. When the flasks were removed, they were washed with 6×10 mL of PBS buffer solution. All the liquid was carefully decanted from the flasks. 1 mL of lysing buffer (1% triton X-100) was added to each of the four flasks. The walls of the flasks were rinsed using disposable pipettes. Once all the contents of the flasks were placed into a 1.5 mL disposable centrifuge tubes (each flask yielded ˜1.2 mL), the tubes were centrifuged at 6000 rpm and at 4° C. for 30 minutes on the Fisher Model 59V high-speed centrifuge. BCA Assay was done to establish the amount of cells in each flask.
# Rh content of each flask was determined using an inductively coupled plasma (ICP) instrument (AtomScan16, Thermo Elemental, Franklin, Mass.). From each centrifuge tube 1 mL was pipetted and 370 μL of concentrated HCl was added to form a 10% solution. The samples were heated in a hot water bath at 70° C. for 30 minutes. The samples were centrifuged again and the supernatant liquid was diluted to 8 mL by adding nano-pure water. The samples were analyzed for Rh content by ICP.
# KB cells = experiment: Phototoxicity to KB tumor cells, MTT assay; conditions: dark, zero time point
# Procedure: Photolysis with Tumor Cells. […] At the beginning of an experiment media was removed from all plates and the cells were washed with 1 mL of PBS or Hank's salt solution. Drug solution (2 mL) or buffer solution (2 mL) was added to each dish. […] Cells were incubated, with or without metal complex, for 4 hours. After incubation, the solutions were removed from the dishes and the dishes were washed with 1 mL of PBS or Hank's salt solution. A fresh 1 mL of PBS or Hank's salt solution was added to each dish and these were placed on a turntable that sat on the top part of the photolysis chamber. […] The plates were then incubated for 40-48 hours before a determination of the extent of cell toxicity by MTT assay.
# Cells were incubated in 75 cm^2 culture flasks. They were grown in Dulbecco's Modified Eagles Medium (D-MEM) supplemented with 10% heat inactivated fetal bovine serum (FBS), 1% L-glutamine-penicillin-streptomycin and 1% amphotericin-B. When cells were not plated for use in an experiment, they were transferred when they were 75-100% confluent using the following procedure. Media was decanted from the flask. Cells were rinsed 1-2 times with 10 mL of Hank's Balanced salt solution. […] Trypsin-EDTA was then decanted and the cells were released from the wall of the flask by tapping the side of the flask. Released cells were suspended in 5 mL media and 1 mL of this suspension was placed in a new culture flasks containing 20 mL of fresh media. The remaining cells were discarded. A culture flask can be used for 3 transfers.
# Usually 16-24 hours before a photolysis experiment, cells were plated in 35×10 mm tissue culture dishes and incubated at 37° C. until the experiment was begun. Cells were about 75-100% confluent in the 75 cm^2 culture flask when plated. After being washed and released from the flask as described above, cells were suspended in 40 mL media and 1.5 mL of suspension was placed in each dish.
# The concentration of the solution was 70 μM.
# The cell dishes were incubated with drug or Hanks balanced salt solution (1 mL) for 3 hours. After incubation, solutions were decanted from the plates and 1 mL of Hank's Balanced salt solution were placed in each. […] Following photolysis, Hank's Balanced salt solutions were decanted and 1 mL of fresh media was placed in each plate.
# Plates were incubated for 65 hours and then analyzed for cell survival by MT assay. 5 mg/mL MTT solution in water was prepared and 100 μL of this solution was added to each plate and the plates were incubated for 1.5 hours. Purple crystals formed from live cells. Media was gently removed from plates using a Pasteur pipette, the purple crystals that remained at the bottom of the dish were dissolved in 6 mL of isopropanol.
# Phototoxicity studies with long wavelength light (>400 nm). […]
# SINV genomic RNA = experiment: Infectivity of genome RNA from treated SINV transfected into BHK cells, plaque assay; assay type: cell-based, Sindbis virus; conditions: irradiated 60 minutes, >330 nm
# Procedure: Photolysis with SINV. DPPZPHEN/SINV solutions were prepared by adding a 0.3 mL aliquot of a 600 μM DPPZPHEN stock solution in PBS to 3 mL of purified virus at a concentration of 7-8 log10 pfu/mL and bringing the total volume to 4 mL. The DPPZPHEN/SINV solutions were incubated for 2 hours prior to irradiation, following which 3 mL of the solution was irradiated in quartz cuvettes with 355 nm light under a constant stream of nitrogen with stirring Aliquots of 100 μL were withdrawn over time and analyzed for virus infectivity. The inactivation rate constant was calculated using simple hit theory (Hiatt, Bacteriol. Rev., 28:150-163 (1964); Houghtaling et al., Photochem. Photobiol., 71:20-28 (2000)). For the studies measuring infectivity of genome RNA, a 6.9 μL aliquot of 0.623 M DPPZPHEN stock solution in DMSO was added to a 100 μL of TE12 wild type […] solution (10 log10 pfu/mL) to obtain a 40 mM DPPZPHEN/virus solution. Aliquots of 50 μL were placed into 250 μL inserts, incubated for 2 hours, and either kept in the dark or irradiated for 60 minutes with light >330 nm. At the completion of the experiment all the samples were diluted with 6 mL 1×PBS buffer and precipitated for 2 hours at 4° C. with 10% PEG+NaCl (200 mM). […]
# M109 cells = experiment: Phototoxicity to M109 tumor cells, MTT assay; assay type: cell-based, mouse; conditions: dark, zero time point
# Procedure: as §1
# Procedures for cell maintenance, cell plating, drug incubation, photolysis and MTT assay are all same as that used for the KB cell lines. A small amount of dark toxicity was observed (about 15%). A considerable amount of killing occurs with light alone after 30 and 40 minutes of irradiation (FIG. 10).
# φX-174 plasmid DNA = experiment: Photonicking of φX-174 plasmid DNA, gel electrophoresis; assay type: biochemical
# Procedure: Photolysis with φX-174 Plasmid DNA. Metal complex solutions (with or without quenchers) were saturated with oxygen or argon prior to irradiation. The solutions were further degassed after being mixed with the plasmid. The final solution concentrations were: DPPZPHEN ([…]), φX-174 plasmid DNA (205 μM in base pairs), superoxide dismutase (25 μg/mL), 2-propanol (0.5 M), mannitol (6.25 mM), histidine (8 mM).
# Experiments were conducted as described in Example X to evaluate the amount photonicking that occurred in the dark and upon exposure to light for 37TMBP, 56TMBP, OCTBP, BISNMe2, TMOBP, TIOBP, TPBP, BISTAP and BISDPPZ.
# CT DNA = experiment: Photolysis with calf thymus DNA: rhodium covalently bound to DNA; assay type: binding; conditions: irradiation >330 nm
# Procedure: General. The quantity of DNA was determined by the Burton assay (Burton, Biochem. J., 62:315-322 (1956)), and its rhodium content was quantitated using flame atomic absorption spectroscopy (AA). The equilibrium constant for interaction between DPPZPHEN and CT-DNA in the dark was calculated from UV-Vis absorption titration measurements at 380 nm (Wolfe et al., Biochem., 26:6392-6396 (1987); Schemel et al., Biopolymers, 10:465-480 (1971)). Cell viability was determined using the MTT assay (Denizot et al., J. Immunol. Methods, 89:271-277 (1986)). SINV was purified on sucrose gradients as previously described (Owen et al., J. Virol., 70:2757-2763 (1996)).
# Photolysis with Calf Thymus DNA (CT DNA). Solutions consisting of 1 mL aliquots of 0.58 mM DPPZPHEN and 2.7 mg/mL CT DNA were irradiated with λ>330 nm light. After irradiation, the solutions were purified by exhaustive dialysis and three cycles of precipitation and resuspension. The DNA and Rh content were determined and/or the DNA was utilized in size exclusion chromatography experiments (Mahnken et al., J. Am. Chem. Soc., 114:9253-9265 (1992)).
compound,measurement,setting,value
"[Cl-].[Cl][Rh+]12([Cl])([N]3C=CC=c4ccc5c(c43)[N]1C=CC=5)[N]1C=CC=c3c1c1c(c4nc5ccccc5nc34)=CC=C[N]12 [DPPZPHEN, cis-dichloro(dipyrido[3,2a-2′3′c]phenazine)(1,10-phenantroline) rhodium(III) chloride]",cell toxicity in the absence of light,GN4 cells,no appreciable degree of cell toxicity
same,ability to pass through the cell membrane,cell membrane,able to pass through the cell membrane
same,cell toxicity in the absence of light,KB cells,no appreciable degree of cell toxicity
same,plaque formation in cells that received RNA from virus irradiated with compound,SINV genomic RNA,no plaque formation
same,cell toxicity in the absence of light,M109 cells,no appreciable degree of cell toxicity
same,frank nicks / nicking of φX-174 supercoiled plasmid DNA upon irradiation,"φX-174 plasmid DNA; 311 nm irradiation, Example VIII",light dose dependent
same,photonicking of φX-174 plasmid DNA,"φX-174 plasmid DNA; Example IX, dark and upon exposure to light",found to photonick
same,protection of the DNA from photonicking by ROS quenchers or argon,"φX-174 plasmid DNA; oxygen-saturated solutions with quenchers, and under argon, relative to buffered control",no significant level of protection
same,bases per bound molecule of Rh,CT DNA,~18 bases

# From patent US20060111335A1, “Photoactivated anti-viral and anti-cancer agent” (priority 2002, published 2006)
